Data taken from patent US10317393B2, “Alkynyl sugar analogs for labeling and visualization of glycoconjugates in cells” (Academia Sinica, priority 2007, dated 2019).

Tests used:
PC-3 cells = test: Lectin staining of tagged cells, flow cytometry; format: cell-based; details: 200 micromolar, three days
Experimental: FIGS. 9A and 9B show lectin staining of alkynyl-derivatized Fuc 1-tagged PC-3 prostate cancer cells. Cells were treated with 200 micromolar derivatized alkynyl-derivatized Fuc 1, or Fuc 3, or left untreated. After three days, cells were labeled with biotin-conjugated AAL/fluorescein-conjugated streptavidin shown in FIG. 9A or fluorescein-conjugated UEA-I shown in FIG. 9B. Fluorescent signal was detected by flow cytometry. AAL was used to detect α-1,6- or α-1,3-linked Fuc; UEA-I was used to detect α-1,2-linked Fuc. Filled histogram: untreated cells without lectin stain; open histogram c: untreated cells stained with lectin; open histogram b: control Fuc 3-treated cells stained with lectin; open histogram a: alkynyl-derivatized Fuc 1-treated cells stained with lectin. AAL, Aleuria Aurantia Lectin; UEA-1, Ulex Europaeus Agglutinin I.
PC-3 cells were grown in RPMI 1640 (Invitrogen) supplemented with 10% FCS and peracetylated alkynyl Fuc 1 or control Fuc 3 for 3 days at 37° C. Cells were then harvested, washed with 1% FCS/PBS, resuspended (5×10^5 cells) in 100 μl of staining solution (1 μg/ml lectin conjugates in 1% FCS/PBS). Cells were then incubated on ice for 30 min and washed twice with 1% FCS/PBS. […] Data were acquired by FACSCalibur, and were analyzed by CellQuestPro software (BD Biosciences).

cell extracts = test: Labeling and detection of glycoconjugates in cell extracts (SDS/PAGE, Western blot); format: cell-based; details: 200 micromolar Fuc or 25 micromolar ManNAc analogs, 3 days
From the text: Because the herein disclosed labeling system enables the identification of cellular glycoconjugates, it can also serve well in glyco-proteomic applications aimed at discovering unknown glycosylated targets for diagnostic and therapeutic purposes. […] Soluble lysate fractions are labeled with biotin probe 6, fluorogenic probe 7, or a standard azido-derivatized rhodamine probe used in proteomics before separating proteins by SDS/PAGE. […] Positive fluorescent signal was also detected in alkynyl positive protein lysate when labeled with fluorogenic 3-azido-7-hydroxycoumarin 7 and rhodamine probes (FIG. 6B and FIG. 11). […] Moreover, further processing, including a streptavidin/avidin enrichment or gel slice purification, will allow for comparative identification by proteomic mass spectrometry techniques of unknown glycoconjugates expressed at different cell status, for instance, un-differentiated verses differentiated cells, or normal verses cancer cells.
Cells were seeded at 3×10^6/8 ml per 10-cm dish and treated with control and test sugars (200 micromolar Fuc 3 vs. alkynyl derivatized Fuc 1, or 25 micromolar ManNAc 5 vs. alkynyl derivatized ManNAc 2) in growth medium at 37° C. […] Signal was developed with SuperSignal Chemiluminescent Substrate and detected by exposure to x-ray film. […] Rhodamine gels were analyzed.

H. pylori = test: Labeling and detection of fucosylated glycoconjugates in H. pylori (immunoprecipitation, SDS-PAGE, protein blot); format: cell-based, Helicobacter pylori
Experimental: Representative H. pylori strains isolated from human gastric biopsy specimens, including gastritis (HS), duodenal ulcer (HD), gastric ulcer (HU) and gastric cancer (HC), were subjected to MOE: all the strains were grown on CDC agar plate supplemented with 200 micromolar derivatized alkynyl Fuc 1 for two days under micro-aerobic atmosphere (5% O2, 15% CO2, 80% N2). […] Immunoprecipitates were then analyzed by SDS-PAGE and stained for visualization. […]
Protein extracts were prepared in lysis buffer (1% NP-40, 150 mM NaCl, 100 mM sodium phosphate pH 7.5, 1×EDTA-free protease inhibitor cocktail) and labeled with biotin probe 6 (protein 1 mg/ml with 0.1 mM azido biotin 6/0.1 mM Tris-thiazoleamine catalyst/1 mM CuSO4/2 mM sodium ascorbate in lysis buffer) via cycloaddition at room temperature for 1 h. […] Immunoprecipitates were then analyzed by SDS-PAGE and stained for visualization. […]
Detection of CagA on protein blots: Protein extracted from control or alkynyl Fuc 1 analog-treated HC samples were subjected to cycloaddition labeling to label with biotin probe (protein 1 mg/ml with 0.1 mM azido biotin 6/0.1 mM Tris-thiazoleamine catalyst/1 mM CuSO4/2 mM sodium ascorbate in lysis buffer), followed by immunoprecipitation with anti-CagA antibody (Santa Cruz). The derivatized alkynyl Fuc tags/biotin labeling on CagA protein were detected by peroxidase-conjugated streptavidin on protein blot.

With “1,2,3,4-tetraacetyl alkynyl fucose [alkynyl Fuc 1]” the “binding of Ulex Europaeus Agglutinin I (UEA-1) to treated cells versus control” value (PC-3 cells) was “significantly lower avidity”, the “binding of aleuria aurantia lectin to treated cells versus control” value (PC-3 cells) was “significantly lower avidity” and the “labeling signal in proteins by Western blot or fluorescence” value (cell extracts) was “specific biotin-labeling signals”. For the same substance, the “tagged fucosyl proteins isolated by anti-biotin immunoprecipitation” value (H. pylori; 200 micromolar, two days, strains HS, HD, HU, HC) was “several proteins were detected” and the “biotinylated Fuc tags on CagA protein (protein blot)” value (H. pylori; HC strain, anti-CagA immunoprecipitation) was “specific signal is only detected in MOE-tagged HC strain”.
